As a reminder, the melting point is the temperature of the solid-liquid transition.

`CC(C)N(Cc1nc(-c2ncn3c2CN(C)C(=O)c2c-3ccc(F)c2Cl)no1)C(C)C` gave a melting point of 153 to 156 °C.
`CCOC(=O)c1[nH]c(=O)n(C)c(=O)c1OCc1ccccc1` gave a melting point of 184 to 187 °C.
The result for `O=C(C=Cc1ccccc1-c1ccccc1)c1ccccc1` reads 190 °C; that for `CCOC(=O)c1ncn2c1C(C)N=C(c1ccccc1F)c1cc(C#C[Si](C)(C)C)ccc1-2` (stereo unspecified), 186 to 187 °C.
The result for `COC(=O)c1ccc2[nH]cc(CCCCN3CCN(c4ccccc4OC)CC3)c2c1` reads 195 to 196 °C; that for `COc1ccc(C(c2ccc(OC)c(OCc3ccccc3)c2)n2cncn2)cc1OCc1ccccc1`, 96 to 99 °C; that for `COC(=O)C(Oc1nc(C)cc(OC)n1)C(OCC(C)(C)C(=O)OC)(c1ccccc1)c1ccccc1` (stereo unspecified), 143 °C.
Compound `N#Cc1ccc(Nc2ccc(C(F)(F)F)cc2Nc2ccc(C#N)cc2C(=O)O)c(C(=O)O)c1` came in with a melting point of 235 to 240 °C.
The result for `Cc1cc2oc3ccccc3c(=O)c2cc1OCC(=O)O` reads 225 to 227 °C; that for `O=C(O)C1=Cc2cc(C(F)(F)F)ccc2NC1C(F)(F)F` (stereo unspecified), 150 to 156 °C.
`CC(C)C[C@H](NC(=O)[C@H](Cc1c[nH]c2ccccc12)NC(=O)OC(C)(C)C)C(=O)CCl` had a melting point of 140 to 141 °C.
On to `OC(c1ccccc1)c1cc2ccnc(N(Cc3ccccc3)Cc3ccccc3)c2[nH]1` (stereo unspecified), for which the melting point lay within 53 to 61 °C.
As for `CCCn1nc2c(N)nc3c(c2c1CCCc1cc(-c2cccnc2)no1)CCCC3`, the melting point was 168 to 170 °C.
The figure for `CC(=O)Nc1ccc(/C=C/C(=O)NCC(=O)N(C)c2ccc(Cl)c(CO)c2Cl)cn1` is 207 to 209 °C.
The result for `[N-]=[N+]=NC(=O)c1ccc(-c2ccc(C(F)(F)F)cc2)s1` reads 97 °C.
The result for `CC1(C)CCC(C)(C)c2cc(-c3ccccc3C=O)ccc21` reads 85 to 87 °C; that for `N#Cc1cc2cc(F)c(F)cc2o1`, 103 °C; that for `COC(=O)c1ccc(OC)c2c1OCCO2`, 84 °C.
Regarding `CCCNC(=O)N1C2=NC(C)(C)N(CCC)C(=O)N2c2ccccc21`, the melting point was in the range of 72 to 74 °C.
Consider `c1ccc(Cc2cnc(N3CCN(c4nc(-c5ccccc5)nc5ccccc45)CC3)nc2)cc1`, for which the melting point was in the range of 135 to 137 °C.
The figure for `COc1ccccc1-n1nnc2cc(F)c(N)cc21` is 128 to 129 °C; for `Cc1cc(N)c(C)c(Cl)c1Oc1ccc(Cl)c2ccccc12` it is 118 to 125 °C.
Turning to `COc1cc2c(c(OC)c1OC)CCC(Br)C2=O` (stereo unspecified), the melting point is 107 to 108 °C.
The figure for `O=C(Cc1ccc(Cl)c(Cl)c1)N1CCC2(CC1CN1CCCC1)SCCS2` (stereo unspecified) is 119 to 120 °C; for `Cn1cc(C2=C(c3c(S(C)=O)n(C)c4ccccc34)C(=O)NC2=O)c2ccccc21` (stereo unspecified) it is 300 °C.
The result for `CN(C)C(=O)C=C(c1ccc(-c2ccccc2)cc1)c1ccc(-c2ccccc2)cc1` reads 121 °C; that for `O=C(Cc1cc(F)cc(F)c1)NCC(=O)N[C@@H]1C(=O)Nc2ccccc2S[C@@H]1c1ccccc1`, 125 to 130 °C; that for `CCCOc1ccc2[nH]c(-c3cc(C)c(O)c(C)c3)c(C)c2c1`, 124 °C.
As to `Cc1cc(C(O)(C(F)(F)Cl)C(F)(F)Cl)cc(C)c1O`, the melting point fell in the range of 90.5 to 92 °C.
The figure for `Cc1cc(C)c2c(=O)[nH]c(-c3cc(C)c(OCCO)c(C)c3)nc2c1` is 260 to 261 °C; for `COC(=O)/C=C(\Oc1ccc(F)cc1)C(=O)OC` it is 60 to 61 °C.
Regarding `C=CCSc1ccc(Oc2ccccc2)nn1`, the melting point is 71 to 73 °C.
The result for `CCCCc1nc2ccc([C@H]3C[C@H](CO)ON3C)cc2c(=O)n1Cc1ccc(-c2ccccc2-c2nnn[nH]2)cc1` (relative stereo) reads 110 °C; that for `Cc1nc2c(c3c1[nH]c1cc(Cl)ccc13)C(=O)CC(C)(C)C2`, 248 to 250 °C.
The figure for `COCCOc1ccc(CCCOC(=O)NS(=O)(=O)c2ccccc2)c(Oc2ncc(C(F)(F)F)cc2Cl)c1` is 174 to 177 °C; for `COc1ccc(Nc2nc(NC(C)C)nc(N(C)C3CCNCC3)n2)cc1Cl` it is 129 °C.
The figure for `CCOC(=O)c1cn(C2CC2)c2nc(N3CCC(NC)C3)c(F)cc2c1=O` (stereo unspecified) is 164 to 166 °C.
Compound `O=C(O)c1ccc(OCCCON=Cc2cn(Cc3ccccc3)c3ccccc23)c(-c2ccc(C(F)(F)F)cc2)c1` registered a melting point of 193 to 194 °C.
The result for `COC(=O)Cc1c(Cl)ncnc1OC` reads 64 °C; that for `CCOC(=O)c1ccc(CN2CCC(NC(=O)OC(C)(C)C)CC2)cc1`, 74 to 76 °C.
The figure for `CCCCCc1ccc(C(=O)NO)cc1` is 89.9 to 90.1 °C; for `CC(C)C1Sc2ccccc2N(CC(N)=O)C(=O)C1N` (stereo unspecified) it is 227 to 229 °C; for `CN1c2ccc(Cl)cc2C(c2ccccc2[N+](=O)[O-])=Nc2cccnc21` it is 165 to 166 °C.
The result for `COCN1C(C)=C(C(=O)OC)C(c2cccc(Cl)c2Cl)C(C(=O)OCOC(=O)C(C)(C)C)=C1C` (single isomer, unassigned; (+)) reads 149 to 150 °C.
`CNC(=O)N1CCC(=C2c3ccc(Cl)cc3CCc3cccnc32)CC1` registered a melting point of 194 to 196 °C.
The figure for `CN(C)C(=O)c1ccc(C=CC(=O)c2cccc(OCc3ccc4ccc(Cl)cc4n3)c2)o1` is 141 to 142 °C; for `COc1cc2c(cc1Br)[C@@H](O)[C@H](Br)C(C)(C)O2` (relative stereo) it is 58 to 59 °C; for `Oc1c(-c2cccnc2)cccc1-c1cccnc1` it is 211 °C.
The result for `CCOC(=O)C(C(=O)CC(C)C)C1c2ccccc2C(=O)N1c1ccc2ccc(Cl)nc2n1` (stereo unspecified) reads 145 °C; that for `Cc1cc(NCC(C)C)c([N+](=O)[O-])c2nnnn12`, 185 to 187 °C.
On to `CC1(C)C(=O)Nc2cc(-c3nc4ccccc4[nH]3)ccc21`, for which the melting point was 326 to 330 °C.
For the compound `OC(CCc1ccccc1)c1c[nH]cn1` (stereo unspecified), the melting point lay in the range of 144 to 146 °C.
Regarding `CNc1nnc2ccc(-c3cccc(N(C)C(C)=O)c3)nn12`, the melting point lay in the range of 213 to 215 °C.
Consider `CC(C)c1ccc(S(=O)(=O)N2CCCC2c2ccc(F)cc2)cc1` (racemic), for which the melting point was 77 °C.
Compound `CC(=O)c1ccc2ccccc2c1OCCCC(=O)O` came in with a melting point of 104 °C.
The figure for `COC(=O)c1nc(Oc2ccccc2)c(Cl)c(N)c1Cl` is 88 to 90 °C.
Take `CCOC(=O)C1=Cc2cccc(S(N)(=O)=O)c2OCC1`: the melting point is 197 to 198 °C.
Take `CCOCc1nc2c(N)nc3cc(-c4ccccc4)cnc3c2n1CCCONC(C)C`: the melting point fell in the range of 142 to 144 °C.
The result for `O=C(O)CCC[C@@H](O)[C@@H](CCc1ccccc1)S(=O)(=O)c1ccccc1` (relative stereo) reads 100 to 102 °C; that for `CS(=O)(=O)c1ccccc1OCCF`, 67 to 69 °C; that for `O=C(NCc1ccc(Cl)cc1)c1cn(CCN2CCOCC2)c2ccc(C#CCO)cc2c1=O`, 215 to 218 °C.
